# Source: article PMC10141580, “Cyclic Dichalcogenides Extend the Reach of Bioreductive Prodrugs to Harness Thiol/Disulfide Oxidoreductases: Applications to seco-Duocarmycins Targeting the Thioredoxin System” (ACS Central Science, 2023)
# Where two headings read alike, the source gives them in different places.
# Test system: NCI-60 standardized human tumor cell line panel
# Experiment: cells
# Format: cell-based
# Conditions: for GI50: Homo sapiens
compound,measurement,setting,value
COc1cc2cc(C(=O)N3C[C@@H](CCl)c4c3cc(OC(=O)N3CCN(C(=O)CCC(=O)N5CCN(C)CC5)[C@H]5CSSC[C@H]53)c3ccccc43)[nH]c2c(OC)c1OC [P-SS66C-CBI-TMI],GI50,"PC-3 (PR) cell line, log10 of GI50 in M, read-out: NCI-60 screening: Log(GI50) (converted)",479 nM
same,GI50,"PC-3, PC-3, read-out: GI50",480 nM
same,GI50,"RPMI-8226, RPMI-8226, read-out: GI50",140 nM
same,GI50,"RPMI-8226, cell line RPMI-8226 (LE:RPMI-8226), TMI sheet, read-out: NCI-60 screening: Log(GI50) (converted)",141 nM
same,GI50,"RPMI-8226, cell line RPMI-8226 (LE:RPMI-8226), TMI sheet, read-out: NCI-60 screening: Raw GI50",140 nM
same,GI50,"RXF 393, RXF 393 (RE) cell line, log10 of GI50 in M, read-out: NCI-60 screening: Log(GI50) (converted)",34.7 nM
same,GI50,"RXF 393, RXF 393, read-out: GI50",35 nM
same,GI50,"SF-268, SF-268, read-out: GI50",58 nM
same,GI50,"SF-268, cell line SF-268 (CNS:SF-268), TMI sheet, read-out: NCI-60 screening: Log(GI50) (converted)",58.9 nM
same,GI50,"SF-295, SF-295, read-out: GI50",110 nM
same,GI50,"SF-295, cell line SF-295 (CNS:SF-295), TMI sheet, read-out: NCI-60 screening: Log(GI50) (converted)",112 nM
same,GI50,"SF-295, cell line SF-295 (CNS:SF-295), TMI sheet, read-out: NCI-60 screening: Raw GI50",110 nM
same,GI50,"SF-539, SF-539, read-out: GI50",39 nM
same,GI50,"SK-MEL-5, SK-MEL-5, read-out: GI50",110 nM
same,GI50,"SK-MEL-5, cell line SK-MEL-5 (ME:SK-MEL-5), TMI sheet, read-out: NCI-60 screening: Log(GI50) (converted)",112 nM
same,GI50,"SK-MEL-5, cell line SK-MEL-5 (ME:SK-MEL-5), TMI sheet, read-out: NCI-60 screening: Raw GI50",110 nM
same,GI50,"SK-MEL-28, SK-MEL-28, read-out: GI50",160 nM
same,GI50,"SK-MEL-28, cell line SK-MEL-28 (ME:SK-MEL-28), TMI sheet, read-out: NCI-60 screening: Log(GI50) (converted)",158 nM
same,GI50,"SK-OV-3, SK-OV-3 (OV) cell line, log10 of GI50 in M, read-out: NCI-60 screening: Log(GI50) (converted)",72.4 nM
same,GI50,"SK-OV-3, SK-OV-3, read-out: GI50",72 nM
same,GI50,"SN12C, SN12C (RE) cell line, log10 of GI50 in M, read-out: NCI-60 screening: Log(GI50) (converted)",44.7 nM
same,GI50,"SN12C, read-out: GI50",45 nM
same,GI50,"SNB-19, SNB-19, read-out: GI50",91 nM
same,GI50,"SNB-19, cell line SNB-19 (CNS:SNB-19), TMI sheet, read-out: NCI-60 screening: Log(GI50) (converted)",91.2 nM
same,GI50,"SR, read-out: GI50",19 nM
same,GI50,"SW-620, SW-620, read-out: GI50",130 nM
same,GI50,"SW-620, cell line SW-620 (CO:SW-620), TMI sheet, read-out: NCI-60 screening: Log(GI50) (converted)",132 nM
same,GI50,"SW-620, cell line SW-620 (CO:SW-620), TMI sheet, read-out: NCI-60 screening: Raw GI50",130 nM
same,GI50,"T47D, T-47D, read-out: GI50",230 nM
same,GI50,"T47D, cell line T-47D (BR:T-47D), TMI sheet, read-out: NCI-60 screening: Log(GI50) (converted)",229 nM
same,GI50,"TK-10, TK-10 (RE) cell line, log10 of GI50 in M, read-out: NCI-60 screening: Log(GI50) (converted)",1050 nM
same,GI50,"TK-10, TK-10, read-out: GI50",1000 nM
same,GI50,"U-251, U251, read-out: GI50",81 nM
same,GI50,"U-251, cell line U251 (CNS:U251), TMI sheet, read-out: NCI-60 screening: Log(GI50) (converted)",81.3 nM
same,GI50,"UACC-62, UACC-62, read-out: GI50",140 nM
same,GI50,"UACC-62, cell line UACC-62 (ME:UACC-62), TMI sheet, read-out: NCI-60 screening: Log(GI50) (converted)",135 nM
same,GI50,"UACC-62, cell line UACC-62 (ME:UACC-62), TMI sheet, read-out: NCI-60 screening: Raw GI50",140 nM
same,GI50,"UACC-257, UACC-257, read-out: GI50",270 nM
same,GI50,"UACC-257, cell line UACC-257 (ME:UACC-257), TMI sheet, read-out: NCI-60 screening: Log(GI50) (converted)",275 nM
same,GI50,"UACC-257, cell line UACC-257 (ME:UACC-257), TMI sheet, read-out: NCI-60 screening: Raw GI50",270 nM
same,GI50,"cell line M14 (ME:M14), TMI sheet, read-out: NCI-60 screening: Log(GI50) (converted)",123 nM
same,GI50,"cell line SF-539 (CNS:SF-539), TMI sheet, read-out: NCI-60 screening: Log(GI50) (converted)",38.9 nM
same,GI50,"cell line SR (LE:SR), TMI sheet, read-out: NCI-60 screening: Log(GI50) (converted)",19.5 nM
same,GI50,"cell line SR (LE:SR), TMI sheet, read-out: NCI-60 screening: Raw GI50",19 nM
same,NCI-60 screening: Log(RedIndex),"IGROV1 (OV) cell line, log10 reductive index vs P-CC60",1.07
same,"GI50/IC50, mean","NCI-60 vs ProliFiler, 19 overlapping cell lines",3.5
same,NCI-60 screening: Log(RedIndex),"NCI-H460 (LC) cell line, log10 reductive index vs P-CC60",1.36
same,NCI-60 screening: Log(RedIndex),"NCI-H522 (LC) cell line, log10 reductive index vs P-CC60",1.49
same,NCI-60 screening: Log(RedIndex),"OVCAR-3 (OV) cell line, log10 reductive index vs P-CC60",1.16
same,NCI-60 screening: Log(RedIndex),"OVCAR-4 (OV) cell line, log10 reductive index vs P-CC60",1.08
same,NCI-60 screening: Log(RedIndex),"OVCAR-5 (OV) cell line, log10 reductive index vs P-CC60",1.3
same,NCI-60 screening: Log(RedIndex),"OVCAR-8 (OV) cell line, log10 reductive index vs P-CC60",1.26
same,NCI-60 screening: Log(RedIndex),"PC-3 (PR) cell line, log10 reductive index vs P-CC60",0.82
same,NCI-60 screening: Log(RedIndex),"RXF 393 (RE) cell line, log10 reductive index vs P-CC60",1.48
same,NCI-60 screening: Log(RedIndex),"SK-OV-3 (OV) cell line, log10 reductive index vs P-CC60",1.47
same,NCI-60 screening: Log(RedIndex),"SN12C (RE) cell line, log10 reductive index vs P-CC60",1.43
same,NCI-60 screening: Log(RedIndex),"TK-10 (RE) cell line, log10 reductive index vs P-CC60",0.43
same,NCI-60 screening: Log(RedIndex),"cell line A549/ATCC (LC:A549/ATCC), TMI sheet",1.35
same,NCI-60 screening: Log(RedIndex),"cell line BT-549 (BR:BT-549), TMI sheet",1.04
same,NCI-60 screening: Log(RedIndex),"cell line CCRF-CEM (LE:CCRF-CEM), TMI sheet",0.57
same,NCI-60 screening: Log(RedIndex),"cell line COLO 205 (CO:COLO 205), TMI sheet",0.98
same,NCI-60 screening: Log(RedIndex),"cell line EKVX (LC:EKVX), TMI sheet",0.97
same,NCI-60 screening: Log(RedIndex),"cell line HCC-2998 (CO:HCC-2998), TMI sheet",1.45
same,NCI-60 screening: Log(RedIndex),"cell line HCT-15 (CO:HCT-15), TMI sheet",0.85
same,NCI-60 screening: Log(RedIndex),"cell line HCT-116 (CO:HCT-116), TMI sheet",0.99
same,NCI-60 screening: Log(RedIndex),"cell line HL-60(TB) (LE:HL-60(TB)), TMI sheet",1.19
same,NCI-60 screening: Log(RedIndex),"cell line HOP-62 (LC:HOP-62), TMI sheet",1.16
same,NCI-60 screening: Log(RedIndex),"cell line HOP-92 (LC:HOP-92), TMI sheet",1.15
same,NCI-60 screening: Log(RedIndex),"cell line HT29 (CO:HT29), TMI sheet",1.03
same,NCI-60 screening: Log(RedIndex),"cell line K-562 (LE:K-562), TMI sheet",0.88
same,NCI-60 screening: Log(RedIndex),"cell line KM12 (CO:KM12), TMI sheet",1.2
same,NCI-60 screening: Log(RedIndex),"cell line LOX IMVI (ME:LOX IMVI), TMI sheet",1.2
same,NCI-60 screening: Log(RedIndex),"cell line M14 (ME:M14), TMI sheet",1.09
same,NCI-60 screening: Log(RedIndex),"cell line MALME-3M (ME:MALME-3M), TMI sheet",1.07
same,NCI-60 screening: Log(RedIndex),"cell line MCF7 (BR:MCF7), TMI sheet",1.33
same,NCI-60 screening: Log(RedIndex),"cell line MDA-MB-435 (ME:MDA-MB-435), TMI sheet",1.08
same,NCI-60 screening: Log(RedIndex),"cell line MOLT-4 (LE:MOLT-4), TMI sheet",0.98
same,NCI-60 screening: Log(RedIndex),"cell line NCI-H23 (LC:NCI-H23), TMI sheet",1.4
same,NCI-60 screening: Log(RedIndex),"cell line NCI-H226 (LC:NCI-H226), TMI sheet",0.77
same,NCI-60 screening: Log(RedIndex),"cell line RPMI-8226 (LE:RPMI-8226), TMI sheet",1.02
same,NCI-60 screening: Log(RedIndex),"cell line SF-268 (CNS:SF-268), TMI sheet",1.42
same,NCI-60 screening: Log(RedIndex),"cell line SF-295 (CNS:SF-295), TMI sheet",1.15
same,NCI-60 screening: Log(RedIndex),"cell line SF-539 (CNS:SF-539), TMI sheet",1.53
same,NCI-60 screening: Log(RedIndex),"cell line SK-MEL-5 (ME:SK-MEL-5), TMI sheet",1.17
same,NCI-60 screening: Log(RedIndex),"cell line SK-MEL-28 (ME:SK-MEL-28), TMI sheet",1.35
same,NCI-60 screening: Log(RedIndex),"cell line SNB-19 (CNS:SNB-19), TMI sheet",1.39
same,NCI-60 screening: Log(RedIndex),"cell line SR (LE:SR), TMI sheet",1.15
same,NCI-60 screening: Log(RedIndex),"cell line SW-620 (CO:SW-620), TMI sheet",1.15
same,NCI-60 screening: Log(RedIndex),"cell line T-47D (BR:T-47D), TMI sheet",0.92
same,NCI-60 screening: Log(RedIndex),"cell line U251 (CNS:U251), TMI sheet",1.27
same,NCI-60 screening: Log(RedIndex),"cell line UACC-62 (ME:UACC-62), TMI sheet",1.05
same,NCI-60 screening: Log(RedIndex),"cell line UACC-257 (ME:UACC-257), TMI sheet",0.86
same,mean reductive index,"mean over NCI cell lines, vs P-CC60",14
same,reductive index,"span over NCI cell lines, vs P-CC60",≤ 30
